# Values quoted from earlier work in patent publication US20070082339A1, “Methods and compositions for screening for HDAC inhibitory activity” (priority 2005, published 2007).
# System: BID
# Conditions: T cell leukemia cells; independently of caspase activity; cited from earlier work
compound,measurement,value
O=C(CCCCCCC(=O)Nc1ccccc1)NO [SAHA],BID cleavage,cleaved
